Laboratory results from PMC3106419 (Bioconjugate chemistry, 2009).

Biological target: T1, human P2Y14 receptor (Homo sapiens, UniProt Q15391)
T1 sequence (Q15391 1-338): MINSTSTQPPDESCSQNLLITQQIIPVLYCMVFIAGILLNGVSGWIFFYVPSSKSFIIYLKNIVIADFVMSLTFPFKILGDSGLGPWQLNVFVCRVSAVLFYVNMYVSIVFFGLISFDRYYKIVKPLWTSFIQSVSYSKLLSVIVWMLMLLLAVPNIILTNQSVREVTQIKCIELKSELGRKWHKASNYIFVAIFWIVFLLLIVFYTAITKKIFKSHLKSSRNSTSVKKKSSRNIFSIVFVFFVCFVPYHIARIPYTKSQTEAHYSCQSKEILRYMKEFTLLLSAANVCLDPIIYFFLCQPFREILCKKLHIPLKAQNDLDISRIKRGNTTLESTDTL
Assay: Inhibition of forskolin-stimulated cyclic AMP accumulation in P2Y14-HEK293 cells
Type: cell-based
Conditions: for relative potency at the P2Y14 receptor: comparator named in the value; for fold more potent than monomer 3a: potency ratio vs ethylenediamine analogue 3a at hP2Y14 receptor; for fold more potent than native agonist UDPG 1: potency ratio vs compound 1 at hP2Y14 receptor

Row | Compound | relative potency at the P2Y14 receptor | also measured
1 | O=C(O)[C@H]1O[C@H](OP(=O)(O)OP(=O)(O)OC[C@H]2O[C@@H](n3ccc(=O)[nH]c3=O)[C@H](O)[C@@H]2O)[C@H](O)[C@@H](O)[C@@H]1O [compound 2, uridine-5′-diphosphoglucuronic acid, reference compound] | approximately equipotent to 1 | –
2 | G2.5-(UDPGA-ethylenediamine)17.3 [compound 10] | – | fold more potent than monomer 3a: more than 800 fold
3 | G3-(UDPGA)4.3 [compound 8] | considerably less potent than 9, but similar in potency to 1 | –
4 | G3-(UDPGA)20.1 [compound 9] | – | fold more potent than native agonist UDPG 1: approximately 100 fold
5 | G3-(UDPGA)20.1-(AlexaFluor488)2.3 [compound 14] | – | fold more potent than native agonist UDPG 1: 7 fold; fold less potent than conjugate 9 (potency ratio vs compound 9 at hP2Y14 receptor): 17 fold
6 | G3-(UDPGA)20.1-(Biotin)4.9 [compound 13] | essentially as potent as 9 | –
7 | G3-(UDPGA)20.1-(DTPA)4.5 [compound 15] | essentially as potent as 9 | –
8 | G5.5-(UDPGA-ethylenediamine)29.9 [compound 11] | – | fold more potent than monomer 3a: more than 800 fold
9 | G6-(UDPGA)147 [compound 12] | significantly more potent than 9 | –
10 | UDPGA-ethylenediamine [3a] | considerably less potent | –
